Data as given in patent US20120129831A1, “Substituted 3-(1,2,4-Oxadiazol-5-yl)-5-Phenylpiperidines” (BAYER PHARMA AKTIENGESELLSCHAFT, priority 2009, published 2012).

Target: T1, human protease activated receptor 1 (PAR-1) (Homo sapiens, UniProt P25116)
T1 construct: the cell stably expresses the endogenous human PAR-1 receptor and the endogenous purinergic receptor P2Y2; endogenous in cells; host or cells: HEK293-derived recombinant cell line; only the mitochondrial aequorin is recombinant
T1 sequence (P25116 22-425): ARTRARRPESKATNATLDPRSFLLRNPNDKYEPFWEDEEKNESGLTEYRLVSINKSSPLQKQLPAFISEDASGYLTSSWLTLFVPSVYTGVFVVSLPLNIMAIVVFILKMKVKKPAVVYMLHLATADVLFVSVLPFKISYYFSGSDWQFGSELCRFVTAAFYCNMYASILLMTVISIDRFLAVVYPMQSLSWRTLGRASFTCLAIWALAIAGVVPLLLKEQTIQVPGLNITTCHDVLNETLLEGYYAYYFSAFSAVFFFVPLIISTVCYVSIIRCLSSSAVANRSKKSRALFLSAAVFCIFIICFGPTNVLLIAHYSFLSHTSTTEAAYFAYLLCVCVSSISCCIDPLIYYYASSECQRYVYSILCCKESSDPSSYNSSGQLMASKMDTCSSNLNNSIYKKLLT
Test: Cellular functional in vitro test (aequorin luminescence, PAR-1 antagonism)
Assay type: cell-based
Settings: recombinant HEK293 aequorin cell line, endogenous human PAR-1; PAR-1 agonist at EC50; calcium luminescence
Excerpt: A recombinant cell line is used to identify antagonists of the human protease activated receptor 1 (PAR-1) and to quantify the activity of the substances described herein. The cell is originally derived from a human embryonal kidney cell (HEK293; ATCC: American Type Culture Collection, Manassas, Va. 20108, USA). The test cell line constitutively expresses a modified form of the calcium-sensitive photoprotein aequorin which, after reconstitution with the cofactor coelenterazine, emits light when the free calcium concentration in the inner mitochondrial compartment is increased (Rizzuto R, Simpson A W, Brini M, Pozzan T.; Nature 1992, 358, 325-327). Additionally, the cell stably expresses the endogenous human PAR-1 receptor and the endogenous purinergic receptor P2Y2. The resulting PAR-1 test cell responds to stimulation of the endogenous PAR-1 or P2Y2 receptor with an intracellular release of calcium ions, which can be quantified through the resulting aequorin luminescence with a suitable luminometer (Milligan G, Marshall F, Rees S, Trends in Pharmacological Sciences 1996, 17, 235-237). […]
Test procedure: The cells are plated out two days (48 h) before the test in culture medium (DMEM F12, supplemented with 10% FCS, 2 mM glutamine, 20 mM HEPES, 1.4 mM pyruvate, 0.1 mg/ml gentamycin, 0.15% Na bicarbonate; BioWhittaker Cat. #BE04-687Q; B-4800 Verviers, Belgium) in 384-well microtitre plates and kept in a cell incubator (96% atmospheric humidity, 5% v/v CO2, 37° C.). […] The test substances are then pipetted onto the microtitre plate, and 5 minutes after the transfer of the test substances into the wells of the microtitre plate the plate is transferred into the luminometer, a PAR-1 agonist concentration which corresponds to EC50 is added and the resulting light signal is immediately measured in the luminometer. To distinguish an antagonist substance action from a toxic action, the endogenous purinergic receptor is immediately subsequently activated with agonist (ATP, final concentration 10 μM) and the resulting light signal is measured.

IC50 | SMILES
34 nM | O=C(N1CC(O)C1)N1CC(c2ccc(OC(F)(F)F)cc2)CC(c2nc(C3CC3)no2)C1 (single isomer, unassigned) [Example 7, {3-(3-Cyclopropyl-1,2,4-oxadiazol-5-yl)-5-[4-(trifluoromethoxy)phenyl]piperidin-1-yl}(3-hydroxyazetidin-1-yl)methanone]
28 nM | COCCc1noc(C2CC(c3ccc(OC(F)(F)F)cc3)CN(C(=O)N3CC(O)C3)C2)n1 (single isomer, unassigned) [Example 9, (3-Hydroxyazetidin-1-yl){3-[3-(2-methoxyethyl)-1,2,4-oxadiazol-5-yl]-5-[4-(trifluoromethoxy)-phenyl]piperidin-1-yl}methanone]
8.6 nM | CCOCCc1noc(C2CC(c3ccc(CC)cc3)CN(C(=O)N3CCC(O)CC3)C2)n1 (single isomer, unassigned) [Example 15, {3-[3-(2-Ethoxyethyl)-1,2,4-oxadiazol-5-yl]-5-(4-ethylphenyl)piperidin-1-yl}(4-hydroxypiperidin-1-yl)methanone]
